Here are results for 1 compound from patent publication EP2880993A1, “Method of achieving memory and learning improvement by the administration of sialic acid” (ABBOTT LABORATORIES, priority 2013, dated 2015).

Assay [1] deals with rats. Kind of assay: Y-maze testing, Example 2 (Acquisition Trial and Retention Trial). Particulars: 14 months old. The format is in vivo, Sprague-Dawley rat. The procedure:
A Y-maze test was performed when the rats were 14 months old, which corresponds to 50-55 years old in humans. Eight rats in each group were tested. The Y-maze testing was performed in two phases: an Acquisition Trial and a Retention Trial. Rats in each group were evaluated in the Y-maze.
During the Acquisition Trial, one of the three arms of the Y-maze was blocked, and animals were allowed to explore the other two arms for 15 minutes. The Retention Trial took place 4 hours after the Acquisition Trial. During the Retention Trial, all three arms were open and animals were allowed to explore for 5 minutes. The amount of time each animal spent at the start of the Y-maze and each arm was evaluated.

Assay [2] relates to hippocampal CA3-CAl areas. Kind of assay: Long-term potentiation (LTP) testing in vivo, Example 1. Also on record: species or system Sprague-Dawley rat. Particulars: PND110; for LTP response evoked by the stimulus, in words: compared with Control Group and Reference Group. The procedure:
Long-term potentiation (LTP) measurements were performed in each of the three groups, i.e., the Control Group, the SIA-supplemented Group and the Reference Group. The testing was done while the animals were alive and at postnatal day 110 (PND110). Postnatal day 110 in rats equates to approximately 10 to 20 years of age in the lifespan of a human. Since hippocampus is a key brain structure related to LTP memory, experiments were done in order to determine the functionality of hippocampus in vivo. Long-term potentiation (LTP) is considered as the electrophysiological base of memory. In these experiments, a higher response indicates better memory potential.
The test was performed after implantation of electrodes in the hippocampal CA3-CAl areas of the rats in each group. There were seven rats per group. Each animal had 4 electrodes inserted and LTP measurements were taken from each electrode. Synaptic field potentials in the CAl area were evoked by paired (40 ms of interval) 100 µs, square, biphasic (negative-positive) pulse applied to Schaffer collaterals. For each animal, the stimulus intensity was set well below the threshold for evoking a population spike, usually 30-40% of the intensity necessary for evoking a maximum field excitatory postsynaptic potential ("fEPSP') response. An excitatory postsynaptic potential (EPSP) is a temporary depolarization of postsynaptic membrane potential caused by the flow of positively charged ions into the postsynaptic cell as a result of opening of ligand-gated ion channels.
To evoke LTP, the following high frequency stimulation (HFS) protocol was used: each animal was subjected to five 200 Hz, 100 ms trains of pulses at a rate of l/s. These trains were presented 6 times in total, at intervals of 1 minutes. After the HFS protocol, fEPSPs were recorded again for 30 minutes. Additional recordings were carried out for 15 minutes during the 3 following days.
FIG. 3 depicts the results of the Long-term Potentiation Testing. FIG. 3 illustrates the results of induction of LTP by the use of a high-frequency stimulation (HFS) protocol. Results correspond to the slope of the field excitatory postsynaptic potential ("fEPSP') evoked by a second electronic pulse (which took place 40 ms after a first pulse). Significant differences (p < 0.05) are indicated by the following signs: "*" indicates the differences between the SIA-supplemented Group and the Control Group; and "†" indicates the differences between the Reference Group and the Control Group. Average baseline fEPSP for each group was assigned the value of 100, and the rest of the fEPSP were referred to that value.

In assay [3] the test system is rats. The assay is described as follows: Intellicage testing, Example 2. Particulars: 14-15 months old, compared with Control group. The class given is in vivo, Sprague-Dawley rat. The procedure: IntelliCage® (NewBehavior AG) is a computer-based, fully automated testing apparatus used to analyze spontaneous and learned behavior. Eight rats in each group were tested. The rats were 14-15 months old, which corresponds to 55-60 years old for humans, when these tests were performed. Animals remain in the cage during several days and behavior is recorded during the entire testing period. Different paradigms can be tested by restricting water access to specific places and time periods. Each animal is assigned a corner where it can access water. Access to the water is only allowed during discrete time periods. Thus, each animal must learn when access to water bottles is allowed and which corner, out of four, has been assigned to it. Access to the corner is controlled by a door that opens only when the assigned rat enters its nose in a hole. […] Access to non-assigned corners remain blocked except during two 90 min periods during the night.

Take `CC(=O)N[C@H]1[C@H]([C@H](O)[C@H](O)CO)OC(O)(C(=O)O)C[C@@H]1O` (some centres unmarked) [SIA, N-Acetylneuraminic acid]: in assay [1] (Retention Trial 4 hours after Acquisition Trial, compared with Control group, FIG. 6), the “latency to blocked arm” value is “lower values of latency to the blocked arm in comparison with Control group”. For the same compound, in assay [1] (Retention Trial, compared with control animals, FIG. 7), the “percentage of animals visiting the previously blocked arm first” value was “significantly higher than that of the control animals”. The “persistence of LTP response” value in assay [2] (72 hours post stimulus) was “remained at high levels”. Besides, in assay [2] (average baseline fEPSP assigned the value of 100, FIG. 3), the “fEPSP slope after high-frequency stimulation” value is “about 220”. For the same compound, in assay [2] (baseline = 100, FIG. 3), the “fEPSP slope forty-eight hours after high-frequency stimulation” value is recorded as around 160, the “fEPSP slope seventy-two hours after high-frequency stimulation” value is reported as around 140 and the “fEPSP slope twenty-four hours after high-frequency stimulation” value is reported as “about 205”. Also, the “LTP response evoked by the stimulus, in words” value in assay [2] is “strongest response”. In addition, the “LTP response evoked by the stimulus, in words” value in assay [2] (listed as free sialic acid) is “significantly higher LTP response levels than those of the control group”. Moreover, the speed of learning result in assay [3] is “seemed to learn faster than the Control group”. Moreover, the “visits to the correct corner versus the incorrect corner (performance)” value in assay [3] (FIG. 8) was “performed better compared to the Control group”.
